Assay results as given in the supplement of paper PMC10627819.

Assays:
[1] = test system: S. aureus DSM 20231; experiment: fitness (endpoint OD595 vs no drug) (fraction); higher = more growth
Summary of the method: (§1)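 Bacterial fitness was scored as optical density at the stationary-phase transition relative to the robust mean of no-drug control wells. Scores are capped at 1. The growth data were OD595 readings every 30 min for 14 h at 37 °C, background-subtracted against the first reading, from 384-well plates inoculated at OD595 0.01 in TSB, LB Lennox or CY.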

[2] = test system: S. aureus Newman; experiment: as above
Summary of the method: as §1

[3] = test system: S. pneumoniae D39V; experiment: as above
Summary of the method: as §1

[4] = test system: B. subtilis 168; experiment: Bliss interaction score (quartile over a dose matrix) (fitness difference); higher = more antagonism (negative = synergy)
Summary of the method: (§2)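 The Bliss score takes observed fitness and subtracts the expected fitness, calculated as a product of single-drug fitness values. Those single-drug values were inferred from the combination data. Fitness is OD595 at entry into stationary phase divided by the plate's robust no-drug mean, capped at 1, and the score is summarised by quartiles across technical, biological and donor/recipient replicates.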

[5] = test system: S. aureus DSM 20231; experiment: as above
Summary of the method: as §2

[6] = test system: S. aureus Newman; experiment: as above
Summary of the method: as §2

[7] = test system: S. pneumoniae D39V; experiment: as above
Summary of the method: as §2

[8] = test system: B. subtilis 168; experiment: fitness (endpoint OD595 vs no drug) (fraction); higher = more growth
Summary of the method: as §1
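Throughout, for Bliss interaction score (quartile over a dose matrix): first quartile when negative (synergy) and third quartile when positive (antagonism).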
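Throughout, for fitness (endpoint OD595 vs no drug): OD595 on entry to stationary phase over no-drug wells; at most 1.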

Cn1c2cccc(=O)c-2nc2ccccc21 [Pyocyanin] + CN[C@H](CC(C)C)C(=O)N[C@H]1C(=O)N[C@@H](CC(N)=O)C(=O)N[C@H]2C(=O)N[C@H]3C(=O)N[C@H](C(=O)N[C@H](C(=O)O)c4cc(O)cc(O)c4-c4cc3ccc4O)[C@H](O)c3ccc(c(Cl)c3)Oc3cc2cc(c3O[C@@H]2O[C@H](CO)[C@@H](O)[C@H](O)[C@H]2O[C@H]2C[C@](C)(N)[C@H](O)[C@H](C)O2)Oc2ccc(cc2Cl)[C@H]1O [Vancomycin]
Conditions | fitness
[1], first compound 1.25 µg/mL, partner 0.1875 µg/mL | 0.796
[1], first compound 1.25 µg/mL, partner 0.375 µg/mL | 0.856
[1], first compound 1.25 µg/mL, partner 0.75 µg/mL | 0.921
[1], first compound 2.5 µg/mL, partner 0.1875 µg/mL | 0.852
[1], first compound 2.5 µg/mL, partner 0.375 µg/mL | 0.861
[1], first compound 2.5 µg/mL, partner 0.75 µg/mL | 0.934
[1], first compound 5 µg/mL, partner 0.1875 µg/mL | 0.659
[1], first compound 5 µg/mL, partner 0.375 µg/mL | 0.745
[1], first compound 5 µg/mL, partner 0.75 µg/mL | 0.726
[2], first compound 1.25 µg/mL, partner 0.1875 µg/mL | 0.907
[2], first compound 1.25 µg/mL, partner 0.375 µg/mL | 0.899
[2], first compound 1.25 µg/mL, partner 0.75 µg/mL | 0.84
[2], first compound 2.5 µg/mL, partner 0.1875 µg/mL | 0.855
[2], first compound 2.5 µg/mL, partner 0.375 µg/mL | 0.768
[2], first compound 5 µg/mL, partner 0.75 µg/mL | 0.393
[3], first compound 0.325 µg/mL, partner 0.03125 µg/mL | ≥ 1
[3], first compound 0.325 µg/mL, partner 0.0625 µg/mL | 0.994
[3], first compound 0.325 µg/mL, partner 0.125 µg/mL | 0.921
[3], first compound 0.65 µg/mL, partner 0.03125 µg/mL | 0.962
[3], first compound 0.65 µg/mL, partner 0.0625 µg/mL | 0.952
[3], first compound 1.3 µg/mL, partner 0.03125 µg/mL | 0.686
[3], first compound 1.3 µg/mL, partner 0.0625 µg/mL | 0.651

fitness, [3], one replicate
Conditions | first compound 0.325 µg/mL | first compound 0.65 µg/mL
partner 0.25 µg/mL | 0.584 | 0.724
partner 0.5 µg/mL | 0.314 | 0.391

Conditions | Bliss interaction score
[4] | -0.0201
[5] | 0.0758
[6] | 0.0784
[7] | 0.0635

Cc1cc(NS(=O)(=O)c2ccc(N)cc2)no1 [Sulfamethoxazol] + Cn1nnc(-c2ccc(-c3ccc(N4C[C@H](CO)OC4=O)cc3F)cn2)n1 [Tedizolid]
fitness
Conditions | first compound 1 µg/mL | first compound 2 µg/mL | first compound 4 µg/mL
[1], partner 0.0625 µg/mL | 0.919 | 0.922 | 0.883
[1], partner 0.125 µg/mL | 0.586 | 0.626 | 0.565
[1], partner 0.25 µg/mL | 0.213 | 0.232 | 0.223
[2], partner 0.0625 µg/mL | 0.975 | 0.958 | 0.965
[2], partner 0.125 µg/mL | 0.901 | 0.94 | 0.934
[2], partner 0.25 µg/mL | 0.576 | – | –
[3], partner 0.03125 µg/mL | 0.942 | 0.945 | 0.964
[3], partner 0.0625 µg/mL | 0.933 | 0.944 | 0.914
[3], partner 0.125 µg/mL | 0.754 | 0.781 | 0.777

fitness, one replicate
Conditions | partner 0.0625 µg/mL | partner 0.125 µg/mL | partner 0.25 µg/mL | partner 0.5 µg/mL
[2], first compound 8 µg/mL | 0.867 | 0.873 | 0.687 | –
[3], first compound 1 µg/mL | – | – | 0.48 | 0.549
[3], first compound 2 µg/mL | – | – | 0.529 | 0.548
[3], first compound 4 µg/mL | – | – | 0.558 | 0.505

Conditions | Bliss interaction score
[4] | -0.056
[5] | 0.0501
[6] | 0.0706
[7] | -0.103

CC[C@H]1OC(=O)[C@H](C)[C@@H](O[C@H]2C[C@@](C)(OC)[C@@H](O)[C@H](C)O2)[C@H](C)[C@@H](O[C@@H]2O[C@H](C)C[C@H](N(C)C)[C@H]2O)[C@](C)(O)C[C@@H](C)CN(C)[C@H](C)[C@@H](O)[C@]1(C)O [Azithromycin] + CN1C2=CC=CC=C2N=C3C1=CC=CC3=O [Pyocyanin]
fitness
Conditions | partner 1.25 µg/mL | partner 2.5 µg/mL | partner 5 µg/mL
[1], first compound 0.125 µg/mL | 0.851 | 0.789 | 0.694
[1], first compound 0.25 µg/mL | 0.797 | 0.8 | 0.666
[2], first compound 0.125 µg/mL | 0.865 | 0.788 | –
[2], first compound 0.25 µg/mL | 0.856 | 0.759 | –
[2], first compound 0.5 µg/mL | – | – | 0.21
[8], first compound 0.25 µg/mL | 0.838 | 0.792 | 0.648
[8], first compound 0.5 µg/mL | – | 0.631 | –

Conditions | Bliss interaction score
[4] | -0.0732
[5] | -0.0596
[6] | 0.0847
[7] | -0.0827

C[n+]1ccc(-c2cc[n+](C)cc2)cc1 [Paraquat] + Cn1nnc(-c2ccc(-c3ccc(N4C[C@H](CO)OC4=O)cc3F)cn2)n1 [Tedizolid]
fitness
Conditions | partner 0.03125 µg/mL | partner 0.0625 µg/mL | partner 0.125 µg/mL | partner 0.25 µg/mL
[1], first compound 1.25 µg/mL | – | 0.866 | 0.644 | 0.117
[1], first compound 2.5 µg/mL | – | 0.803 | 0.583 | 0.161
[1], first compound 5 µg/mL | – | 0.836 | 0.588 | 0.137
[2], first compound 1.25 µg/mL | – | 0.855 | 0.762 | –
[2], first compound 2.5 µg/mL | – | 0.902 | 0.805 | –
[2], first compound 5 µg/mL | – | 0.843 | – | –
[3], first compound 1.5 µg/mL | 0.926 | 0.948 | 0.86 | –
[3], first compound 3 µg/mL | 0.956 | 0.951 | 0.846 | –
[3], first compound 6 µg/mL | 0.932 | 0.934 | 0.817 | –

fitness, [3], one replicate
Conditions | first compound 1.5 µg/mL | first compound 3 µg/mL | first compound 6 µg/mL
partner 0.25 µg/mL | 0.796 | 0.786 | 0.808
partner 0.5 µg/mL | 0.626 | 0.603 | 0.602

Conditions | Bliss interaction score
[4] | 0.075
[5] | 0.0784
[6] | -0.041
[7] | -0.0684
